Reference: PubChem BioAssay (NCI)
Where “and” joins values, the source holds several entries; their conditions need not be identical. Identical values can stand only once.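 Dose response: 5 concentrations. Exposure: 48 h. Format: 96-well plates. Endpoint: linear interpolation; highest concentration if not reached. GI50 marks 50% less growth. Definition used: TGI = concentration required for complete inhibition of growth.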

How the values were obtained:
Assay in all cases: DTP human tumour cell line panel, 48 h
CCRF-CEM leukemia = test system: CCRF-CEM leukemia
EKVX NSCLC = test system: EKVX NSCLC
HL-60(TB) leukemia = test system: HL-60(TB) leukemia
HOP-62 NSCLC = test system: HOP-62 NSCLC
LOX IMVI melanoma = test system: LOX IMVI melanoma
M14 melanoma = test system: M14 melanoma
MOLT-4 leukemia = test system: MOLT-4 leukemia
NCI/ADR-RES ovarian = test system: NCI/ADR-RES ovarian
RPMI-8226 leukemia = test system: RPMI-8226 leukemia
U251 CNS = test system: U251 CNS

Structure (SMILES)	GI50 (CCRF-CEM leukemia)	TGI (CCRF-CEM leukemia)	GI50 (EKVX NSCLC)	TGI (EKVX NSCLC)	GI50 (HL-60(TB) leukemia)	TGI (HL-60(TB) leukemia)	GI50 (HOP-62 NSCLC)	TGI (HOP-62 NSCLC)	GI50 (LOX IMVI melanoma)	TGI (LOX IMVI melanoma)	GI50 (M14 melanoma)	TGI (M14 melanoma)	GI50 (MOLT-4 leukemia)	TGI (MOLT-4 leukemia)	GI50 (NCI/ADR-RES ovarian)	TGI (NCI/ADR-RES ovarian)	GI50 (RPMI-8226 leukemia)	TGI (RPMI-8226 leukemia)	GI50 (U251 CNS)	TGI (U251 CNS)
CCCc1n(Cc2ccc3ccccc3n2)cc[n+]1Cc1ccc2ccccc2n1	2.72 µM	28.3 µM	5.67 µM	> 79.6 µM	0.34 µM	1.69 µM	4.17 µM	17.9 µM	2.43 µM	10.9 µM	2.29 µM	13.5 µM	2.89 µM	16.5 µM	> 100 µM	> 100 µM	0.362 µM	7.41 µM	1.51 µM	12.3 µM
N#Cc1ccc(/C=C/C(=O)c2ccccc2)cc1	8.31 µM and 2.86 µM	> 57 µM and 11.5 µM	16.6 µM and 13.6 µM	34.9 µM and 27.4 µM	9.07 µM and 3.2 µM	48.4 µM and > 33.1 µM	22 µM and 18.4 µM	> 54.9 µM and 33.8 µM	2.41 µM and 3.3 µM	6.12 µM and 9.23 µM	11.3 µM and 13.4 µM	> 50.5 µM and 27.8 µM	9.4 µM and 6.4 µM	53.3 µM and > 38.9 µM	22.8 µM and 24.2 µM	54.8 µM and 69.8 µM	2.32 µM and 1.93 µM	6.4 µM and 4.83 µM	2.95 µM and 3.76 µM	9.52 µM and 11.8 µM
Cc1cc2c(cc1Cl)N1C(=O)NS(=O)(=O)N=C1NS2(=O)=O	> 100 µM	> 100 µM	> 100 µM	> 100 µM	> 100 µM	> 100 µM	> 100 µM	> 100 µM	> 100 µM	> 100 µM	> 100 µM	> 100 µM	> 100 µM	> 100 µM	> 100 µM	> 100 µM	> 100 µM	> 100 µM	> 100 µM	> 100 µM
CCN(CCO)CCCOc1ccc2c(Nc3cc(CC(=O)Nc4cccc(F)c4)[nH]n3)ncnc2c1	< 0.01 µM and 0.0047 µM	47.9 µM and > 5.1 µM	84.1 µM	> 100 µM	13 µM	40.4 µM	16.3 µM	> 88.6 µM	10.6 µM	32.2 µM and > 3.26 µM	20.9 µM	> 56.2 µM	3.38 µM	> 88.4 µM	> 100 µM	> 100 µM	15.4 µM	47.8 µM and > 2.17 µM	13.7 µM	29.4 µM and > 10 µM
CC[C@@]1(O)C(=O)NCc2c1cc1n(c2=O)Cc2cc3c(NC(C)=O)cccc3nc2-1	> 100 µM	> 100 µM	> 100 µM	> 100 µM	> 100 µM	> 100 µM	> 100 µM	> 100 µM	> 100 µM	> 100 µM	> 100 µM	> 100 µM	> 100 µM	> 100 µM	> 100 µM	> 100 µM	> 30.3 µM	> 100 µM	> 100 µM	> 100 µM
COc1cc(/C=C/c2ccccn2)cc(OC)c1OC		> 10 µM		> 10 µM		> 10 µM		> 10 µM		> 10 µM		> 10 µM		> 10 µM		> 10 µM		> 10 µM		> 10 µM
CS(=O)(=O)N1CCc2c(-c3cnc(N)nc3)nc(N3CCOCC3)nc21	0.658 µM and 1.23 µM	> 100 µM	0.988 µM and 0.44 µM	> 10 µM and 5.74 µM	0.415 µM	> 100 µM	1.26 µM and 0.795 µM	> 10 µM and 11.8 µM	0.579 µM and 0.406 µM	> 94.2 µM	1.43 µM and 0.625 µM	> 41 µM	0.92 µM and 0.807 µM	> 100 µM	2.16 µM and 1.63 µM	> 100 µM	1.52 µM and 2.5 µM	> 100 µM	1.7 µM and 1.27 µM	> 10 µM and 23 µM
Nc1ccc(C(=O)Nc2ccccc2N)cc1		> 82 µM		> 100 µM		17.6 µM		> 100 µM		> 75.8 µM		> 100 µM		73.7 µM		19.6 µM		98.8 µM		59.8 µM
COc1ccc(-c2nc3sccn3c2-c2ccnc(NCCCNS(=O)(=O)c3ccc(F)cc3)n2)cc1	1.52 µM	> 100 µM	3.12 µM	> 100 µM	2.64 µM	9.22 µM	4.15 µM	23.7 µM	1.91 µM	5.82 µM	2.54 µM	10.2 µM	1.9 µM	7.67 µM	1.98 µM	6.16 µM	1.6 µM	5.37 µM	3.7 µM	> 100 µM
COC(=O)C1(C)CCCC2(C)c3cc(OC)ccc3C(=O)C(Br)C12 (stereo not given)		6.59 µM		> 10 µM		4.2 µM		> 10 µM		> 10 µM		> 10 µM		4.17 µM		> 10 µM		6.53 µM		> 10 µM
COc1cc(-c2nn(-c3cccc(NC(=O)CCN4CCN(C)CC4)c3)cc2-c2ccncc2)ccc1Cl	1.98 µM	6.85 µM	2.13 µM	12.6 µM	0.735 µM	2.79 µM	1.36 µM	4.38 µM	0.922 µM	2.22 µM	1.09 µM	2.71 µM	1.44 µM	4.89 µM	2.62 µM	8.76 µM	1.77 µM	4.56 µM	1.29 µM	3.4 µM
CC(C)[C@H](C(=O)O[C@@H]1/C=C/C(=O)O[C@@H](C)CCC/C=C/[C@@H]2C[C@H](O)C[C@H]21)N(C)C	6.05 µM	75 µM	8.45 µM	> 65.3 µM	28.2 µM	50.7 µM	17.2 µM	> 100 µM	9.59 µM	26.9 µM	11.1 µM	> 63.8 µM	14.9 µM	42.2 µM	14.9 µM	> 87.8 µM	8.12 µM	36.8 µM	20.3 µM	> 100 µM
COc1cccc(/C=C\c2ccnc3ccccc23)c1		> 10 µM		> 10 µM		> 10 µM		> 10 µM		> 10 µM		> 10 µM		> 10 µM		> 10 µM		> 10 µM		> 10 µM
O=C1/C(=C/c2ccccc2[N+](=O)[O-])COc2ccc(O)c(O)c21	0.365 µM	> 50 µM	2.51 µM	10.8 µM	0.745 µM	8.13 µM	3.55 µM	14.5 µM	0.307 µM	1.3 µM	0.797 µM	2.89 µM	0.431 µM	> 21.8 µM	1.23 µM	13.6 µM	0.421 µM	> 41.3 µM	0.922 µM	5.76 µM
